In DBAASP:
≈ marks a conversion by molar mass, not a printed value. Where “and” joins values, the source holds several entries; their conditions need not be identical. Identical values can stand only once.

What was measured:
Experiment in all cases: ≥ marks a high value that may be exact or a test limit, other limits are often not marked, values filed in µg/mL are converted to µM
Trypanosoma cruzi = tested on: Trypanosoma cruzi
[1] = tested on: Corynebacterium jeikeium ATCC BAA-949
[2] = tested on: Pseudomonas aeruginosa ATCC 27853
Staphylococcus capitis 1 = tested on: Staphylococcus capitis 1
Escherichia coli O111:B4 = tested on: Escherichia coli O111:B4
Enterococcus faecalis = tested on: Enterococcus faecalis
[3] = tested on: Yersinia pseudotuberculosis YPIII
[4] = tested on: Staphylococcus aureus Cowan 1
[5] = tested on: Staphylococcus aureus ATCC 29213
Acinetobacter baumannii = tested on: Acinetobacter baumannii
Escherichia coli D21 = tested on: Escherichia coli D21
[6] = tested on: Acinetobacter baumannii ATCC 19606
[7] = tested on: Escherichia coli ATCC 25922
[8] = tested on: Staphylococcus epidermidis ATCC 12228
Candida tropicalis = tested on: Candida tropicalis
Escherichia coli ML-35 = tested on: Escherichia coli ML-35
[9] = tested on: Klebsiella pneumoniae ATCC 13883
Bacillus megaterium Bm11 = tested on: Bacillus megaterium Bm11
Candida albicans = tested on: Candida albicans
[10] = tested on: Serratia marcescens ATCC 8100
Candida parapsilosis = tested on: Candida parapsilosis
[11] = tested on: Salmonella enterica subsp. enterica serovar Enteritidis
Rhodotorula mucilaginosa = tested on: Rhodotorula mucilaginosa
[12] = tested on: Salmonella enterica subsp. enterica serovar Typhimurium ATCC 14028
Klebsiella pneumoniae = tested on: Klebsiella pneumoniae
Streptococcus equinus = tested on: Streptococcus equinus
Staphylococcus aureus = tested on: Staphylococcus aureus
[13] = tested on: Staphylococcus aureus ATCC 25923
[14] = tested on: Bacillus subtilis KACC 10196
[15] = tested on: Bacillus subtilis CCT 2471
[16] = tested on: Pseudomonas aeruginosa ATCC 9027
[17] = tested on: Candida albicans KACC 30071
[18] = tested on: Enterobacter cloacae ATCC 23355
[19] = tested on: Enterococcus faecalis KACC 11304
[20] = tested on: Escherichia coli CCT 1371
[21] = tested on: Escherichia coli KACC 1039
[22] = tested on: Staphylococcus aureus ATCC 6535
[23] = tested on: Candida albicans ATCC 90028
[24] = tested on: Staphylococcus aureus KACC 10196
[25] = tested on: Staphylococcus aureus USA 100
[26] = tested on: Klebsiella pneumoniae KCTC 2242
[27] = tested on: Staphylococcus aureus USA 300
[28] = tested on: Pseudomonas aeruginosa KACC 10259
[29] = tested on: Staphylococcus saprophyticus
[30] = tested on: Escherichia coli DSM 30083
[31] = tested on: Bacillus subtilis DSM 402
[32] = tested on: Bacillus subtilis KCCM 11495
[33] = tested on: Escherichia coli KCCM 11569

CC[C@H](C)[C@H](NC(=O)[C@H](C)NC(=O)[C@H](Cc1cnc[nH]1)NC(=O)[C@@H]1CCCN1C(=O)[C@@H](NC(=O)[C@H](CC(C)C)NC(=O)[C@H](CO)NC(=O)[C@H](CC(C)C)NC(=O)[C@@H](N)Cc1ccccc1)[C@@H](C)CC)C(=O)N[C@@H](CC(N)=O)C(=O)N[C@@H](C)C(=O)N[C@H](C(=O)N[C@@H](CO)C(=O)N[C@H](C(=O)N[C@@H](CC(C)C)C(=O)N[C@H](C(=O)N[C@@H](Cc1cnc[nH]1)C(=O)N[C@@H](Cc1cnc[nH]1)C(=O)N[C@@H](CO)C(=O)NCC(N)=O)C(C)C)[C@@H](C)O)C(C)C [FLSLIPHAINAVSTLVHHSG]
MIC (Trypanosoma cruzi): 14.2 µM (≈ 30 µg/mL)

CC[C@H](C)[C@H](N)C(=O)N[C@H](C(=O)NCC(=O)N1CCC[C@H]1C(=O)N[C@H](C(=O)N[C@@H](CC(C)C)C(=O)NCC(=O)N[C@@H](CC(C)C)C(=O)N[C@H](C(=O)NCC(=O)N[C@@H](CO)C(=O)N[C@@H](C)C(=O)N[C@@H](CC(C)C)C(=O)NCC(=O)NCC(=O)N[C@@H](CC(C)C)C(=O)N[C@@H](CC(C)C)C(=O)N[C@@H](CCCCN)C(=O)N[C@@H](CCCCN)C(=O)N[C@H](C(N)=O)[C@@H](C)CC)C(C)C)C(C)C)[C@@H](C)CC [IIGPVLGLVGSALGGLLKKI]
MIC [1]: 8 µM (≈ 15.3 µg/mL)
MIC [2]: > 50 µM
MIC (Staphylococcus capitis 1): 12.5 µM (≈ 24 µg/mL)
MIC (Escherichia coli O111:B4): ≥ 50 µM
MIC (Enterococcus faecalis): ≥ 50 µM
MIC [3]: 12.5 µM (≈ 24 µg/mL)
MIC [4]: 12.5 µM (≈ 24 µg/mL)
MIC [5]: 12.5 µM (≈ 24 µg/mL)
MIC (Acinetobacter baumannii): ≥ 50 µM
MIC (Escherichia coli D21): ≥ 50 µM
MIC [6]: 12.5 µM (≈ 24 µg/mL)
MIC [7]: > 50 µM
MIC [8]: 12.5 µM (≈ 24 µg/mL)

CC(C)C[C@H](NC(=O)[C@H](CCC(N)=O)NC(=O)[C@H](CCC(=O)O)NC(=O)[C@H](CC(C)C)NC(=O)[C@H](Cc1ccccc1)NC(=O)[C@H](CCC(=O)O)NC(=O)[C@H](CCC(N)=O)NC(=O)[C@H](Cc1ccccc1)NC(=O)[C@H](CO)NC(=O)[C@H](CC(C)C)NC(=O)[C@@H]1CCCN1C(=O)[C@H](Cc1ccccc1)NC(=O)[C@H](Cc1c[nH]c2ccccc12)NC(=O)[C@H](Cc1cnc[nH]1)NC(=O)[C@H](CCCN=C(N)N)NC(=O)[C@H](CCCN=C(N)N)NC(=O)[C@@H](N)CCCCN)C(=O)N[C@@H](CCCN=C(N)N)C(=O)N[C@@H](CCCN=C(N)N)C(=O)N[C@@H](Cc1ccccc1)C(=O)N[C@@H](CCCN=C(N)N)C(=O)N[C@@H](CC(=O)O)C(=O)N[C@@H](CCC(N)=O)C(=O)N[C@@H](CC(C)C)C(=O)N1CCC[C@H]1C(=O)N[C@@H](Cc1ccccc1)C(=O)N1CCC[C@H]1C(=O)O [KRRHWFPLSFQEFLEQLRRFRDQLPFP]
MIC [2]: > 31.9 µM
MIC (Candida tropicalis): 31.9 µM (≈ 114 µg/mL)
MIC (Escherichia coli ML-35): 3.92 µM (≈ 14 µg/mL)
MIC [9]: 7.97 µM (≈ 28.5 µg/mL)
MIC (Bacillus megaterium Bm11): 3.92 µM (≈ 14 µg/mL)
MIC (Candida albicans): > 31.9 µM
MIC [10]: 7.97 µM (≈ 28.5 µg/mL)
MIC (Candida parapsilosis): 31.9 µM (≈ 114 µg/mL)
MIC [11]: 31.9 µM (≈ 114 µg/mL)
MIC (Rhodotorula mucilaginosa): 31.9 µM and 15.9 µM
MIC [12]: 31.9 µM (≈ 114 µg/mL)
MIC (Klebsiella pneumoniae): 31.9 µM (≈ 114 µg/mL)
MIC (Streptococcus equinus): 31.9 µM (≈ 114 µg/mL)
MIC (Staphylococcus aureus): 31.9 µM (≈ 114 µg/mL)
MIC [13]: 15.9 µM (≈ 57 µg/mL)
MIC [7]: 3.92 µM (≈ 14 µg/mL)
MIC [8]: 7.97 µM (≈ 28.5 µg/mL)

CC[C@H](C)[C@H](NC(=O)[C@H](CO)NC(=O)[C@@H](NC(=O)[C@H](CCCCN)NC(=O)[C@H](Cc1ccccc1)NC(=O)[C@@H]1CCCN1)[C@@H](C)CC)C(=O)N[C@@H](Cc1cnc[nH]1)C(=O)N[C@@H](CC(C)C)C(N)=O [PFKISIHL]
MIC [14]: 4 µM (≈ 3.81 µg/mL)
MIC [2]: 10.5 µM (≈ 9.99 µg/mL)
MIC [15]: 10.5 µM (≈ 9.99 µg/mL)
MIC [16]: 50 µM (≈ 47.7 µg/mL)
MIC [9]: 10.5 µM (≈ 9.99 µg/mL)
MIC [17]: 16 µM (≈ 15.3 µg/mL)
MIC [18]: 10.5 µM (≈ 9.99 µg/mL)
MIC [19]: 16 µM (≈ 15.3 µg/mL)
MIC [20]: 2.62 µM (≈ 2.5 µg/mL)
MIC [21]: 8 µM (≈ 7.63 µg/mL)
MIC [22]: 10.5 µM (≈ 9.99 µg/mL)
MIC (Candida albicans): 2.62 µM (≈ 2.5 µg/mL)
MIC [23]: ≥ 50 µM
MIC [24]: 16 µM (≈ 15.3 µg/mL)
MIC [25]: ≥ 50 µM
MIC [26]: 8 µM (≈ 7.63 µg/mL)
MIC [27]: ≥ 50 µM
MIC [28]: 8 µM (≈ 7.63 µg/mL)
MIC [29]: 15.7 µM (≈ 15 µg/mL)

CC(=O)N[C@@H](CCCN=C(N)N)C(=O)N[C@@H](Cc1c[nH]c2ccccc12)C(=O)N[C@@H](CCCN=C(N)N)C(=O)N[C@@H](Cc1c[nH]c2ccccc12)C(=O)N[C@@H](CCCN=C(N)N)C(=O)N[C@@H](Cc1c[nH]c2ccccc12)C(N)=O [RWRWRW]
MIC [30]: ≥ 45 µM
MIC [31]: ≥ 45 µM

CC(C)C[C@H](NC(=O)CNC(=O)[C@H](Cc1cnc[nH]1)NC(=O)[C@H](Cc1cnc[nH]1)NC(=O)[C@H](CC(C)C)NC(=O)[C@H](CC(C)C)NC(=O)[C@H](C)NC(=O)[C@H](CC(N)=O)NC(=O)[C@H](CC(C)C)NC(=O)[C@@H](N)Cc1c[nH]c2ccccc12)C(=O)N[C@@H](CC(N)=O)C(=O)N[C@@H](CS)C(=O)N[C@@H](C)C(=O)N[C@@H](CCCCN)C(N)=O [WLNALLHHGLNCAK]
MIC [32]: ≥ 40.3 µM
MIC [33]: ≥ 40.3 µM
